These results are taken from ChEMBL document CHEMBL3045681, “Synthesis and evaluation of new 1,2,3,4-tetrahydroisoquinoline analogs as antiglioma agents” (Med Chem Res, 2011).

A short description of experiment [1]: Cytotoxicity against Rattus norvegicus Sprague-Dawley (rat) astrocytes after 4 days by cresylecth violet-staining method. It counts as cell-based, Astrocyte.
Experiment [2] has as its system C6. In words: Cytotoxicity against Rattus norvegicus (rat) C6 cells after 4 days by cresylecth violet-staining method. It counts as functional, cell-based.
The test system of experiment [3] is C6. The experiment can be described thus: Ratio of EDL-155 EC50 to compound EC50 for Rattus norvegicus (rat) C6 cells. Format: functional.
Setting [4] is: Rattus norvegicus, Sprague-Dawley, Astrocyte, 96 h, read-out: EC50.

Turning to `COc1cc2c(c(OC)c1)C(Cc1ccc(-c3ccccc3)cc1)N(C(=O)OC(C)(C)C)CC2` (stereo not drawn), the half-maximal effective concentration (EC50) (in general, the concentration that produces a half-maximal response) was “Not Active” in experiment [1] (astrocyte) and 7.54 µM in the experiment on C6 [2] (Rattus norvegicus, C6, 96 h).
For `COc1cc2c(c(OC)c1)C(Cc1ccc(-c3ccccc3)cc1)NCC2` (stereo not drawn), the concentration giving a half-maximal response (EC50) in experiment [1] (setting [4]) is 8.95 µM; in the experiment with C6 [2] (Rattus norvegicus, C6, 96 h), 2.31 µM.
In the case of `Oc1cc(O)c2c(c1)CCNC2Cc1ccc(-c2ccccc2)cc1` (stereo not drawn), the concentration giving a half-maximal response (EC50) in experiment [1] (setting [4]) was 11.9 µM; in the experiment with C6 [2] (Rattus norvegicus, C6, 96 h), 2.09 µM.
The corresponding values for `CC(C)(C)OC(=O)N1CCc2cc(O)cc(O)c2C1Cc1ccc(-c2ccccc2)cc1` (stereo not drawn) are 8.58 µM and 4.97 µM.
On the same counts, the results for `COc1cc2c(c(OC)c1)C(Cc1ccc(Br)cc1)N(C(=O)OC(C)(C)C)CC2` (stereo not drawn) are 28.1 µM and 10.1 µM.
On the same counts, the results for `Oc1cc(O)c2c(c1)CCNC2Cc1ccc(Br)cc1` (stereo not drawn) are 23.9 µM and 12.6 µM.
Regarding `CC(C)(C)OC(=O)N1CCc2cc(O)cc(O)c2C1Cc1ccc(Br)cc1` (stereo not drawn), the EC50 was determined as 9.97 µM in experiment [1] (setting [4]) and 7.04 µM in the experiment on C6 [2] (Rattus norvegicus, C6, 96 h).
For `COc1ccccc1-c1ccc(CC2c3c(O)cc(O)cc3CCN2C(=O)OC(C)(C)C)cc1` (stereo not drawn), the EC50 in experiment [1] (setting [4]) stood at 67.5 µM; with C6 [2] (Rattus norvegicus, C6, 96 h), 7.34 µM.
On the same counts, the results for `COc1ccccc1-c1ccc(CC2NCCc3cc(O)cc(O)c32)cc1` (stereo not drawn) are 15.7 µM and 2.61 µM.
Regarding `COc1cc2c(c(OC)c1)C(Cc1ccc(-c3ccccc3OC)cc1)N(C(=O)OC(C)(C)C)CC2` (stereo not drawn), the concentration for a half-maximal effect (EC50) entry in experiment [1] (astrocyte) was “Not Active”; in the experiment with C6 [2] (Rattus norvegicus, C6, 96 h), 59.7 µM.
In the case of `Oc1cc2c(cc1O)C(Cc1ccc(-c3ccccc3)cc1)NCC2` (racemic), the half-maximal effective concentration (EC50) in experiment [1] (setting [4]) turned out to be 27.4 µM; in the experiment with C6 [2] (Rattus norvegicus, C6, 96 h), 1.5 µM.
Turning to `COc1cc2c(c(OC)c1)C(Cc1ccc(-c3ccccc3OC)cc1)NCC2` (single isomer, unassigned; (+)), the half-maximal effective concentration (EC50) came to 13.1 µM in experiment [1] (astrocyte, read-out: EC50) and 0.26 µM with C6 [2] (c6).
In the case of `COc1cc2c(c(OC)c1)C(Cc1ccc(-c3ccccc3OC)cc1)NCC2.Cl` (stereo in doubt; 25), the “Ratio EC50” value with C6 [3] is 2.4. Further, the concentration for a half-maximal effect (EC50) in experiment [1] (astrocyte, read-out: EC50) worked out at 10.8 µM; in the experiment with C6 [2] (c6), 0.63 µM.
On to `COc1cc2c(c(OC)c1)C(Cc1ccc(-c3ccccc3OC)cc1)NCC2` (stereo in doubt; (-)25), for which the concentration for a half-maximal effect (EC50) is 15.7 µM in experiment [1] (setting [4]) and 5.39 µM in the experiment on C6 [2] (c6).
For the compound `O=NN(CCCl)C(=O)NCCCl` [CARMUSTINE], the EC50 in experiment [1] (setting [4]) worked out at 54.8 µM; in the experiment with C6 [2] (Rattus norvegicus, C6, 96 h), 4.8 µM.
On the same counts, the results for `Cn1nnc2c(C(N)=O)ncn2c1=O` [TEMOZOLOMIDE] are 51.8 µM and 16.5 µM.
